Key:
Experiment in all cases: relative viability (nuclei count vs DMSO), 5 days (fraction); higher = more cells survive
Wnt-C59 + Lapatinib = compound: CC1=NC=CC(=C1)C2=CC=C(C=C2)CC(=O)NC3=CC=C(C=C3)C4=CN=CC=C4 [Wnt-C59] + CS(=O)(=O)CCNCc1ccc(-c2ccc3ncnc(Nc4ccc(OCc5cccc(F)c5)c(Cl)c4)c3c2)o1 [Lapatinib] (partner 2 µM)
Outline: (§1)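 Relative viability was taken as the ratio of nuclei in treated wells to nuclei in vehicle wells. Lung cancer cell lines in 1536-well plates received compounds by pin tool one day after seeding, either one drug alone or a fixed anchor-drug dose plus five library-drug doses (not always all listed) in √10 steps. Nuclei were counted on 4× images after 5 days of treatment, and values are medians of duplicate plates.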

Lapatinib + Foretinib = compound: CS(=O)(=O)CCNCc1ccc(-c2ccc3ncnc(Nc4ccc(OCc5cccc(F)c5)c(Cl)c4)c3c2)o1 [Lapatinib] + COc1cc2c(Oc3ccc(NC(=O)C4(C(=O)Nc5ccc(F)cc5)CC4)cc3F)ccnc2cc1OCCCN1CCOCC1 [Foretinib] (partner 0.25 µM)
Outline: as §1

Lapatinib + Crizotinib = compound: CS(=O)(=O)CCNCc1ccc(-c2ccc3ncnc(Nc4ccc(OCc5cccc(F)c5)c(Cl)c4)c3c2)o1 [Lapatinib] + C[C@@H](Oc1cc(-c2cnn(C3CCNCC3)c2)cnc1N)c1c(Cl)ccc(F)c1Cl [Crizotinib] (partner 1 µM)
Outline: as §1

Lapatinib + Decitabine = compound: CS(=O)(=O)CCNCc1ccc(-c2ccc3ncnc(Nc4ccc(OCc5cccc(F)c5)c(Cl)c4)c3c2)o1 [Lapatinib] + Nc1ncn([C@H]2C[C@H](O)[C@@H](CO)O2)c(=O)n1 [Decitabine] (partner 2 µM)
Outline: as §1

Row | Cell Line | relative viability (Wnt-C59 + Lapatinib; first compound 0.001 µM) | relative viability (Wnt-C59 + Lapatinib; first compound 0.01 µM) | relative viability (Wnt-C59 + Lapatinib; first compound 0.03162 µM) | relative viability (Wnt-C59 + Lapatinib; first compound 0.1 µM) | relative viability (Lapatinib + Foretinib; first compound 0.02 µM) | relative viability (Lapatinib + Foretinib; first compound 0.06325 µM) | relative viability (Lapatinib + Foretinib; first compound 0.2 µM) | relative viability (Lapatinib + Foretinib; first compound 0.6325 µM) | relative viability (Lapatinib + Foretinib; first compound 2 µM) | relative viability (Lapatinib + Crizotinib; first compound 0.06325 µM) | relative viability (Lapatinib + Crizotinib; first compound 0.2 µM) | relative viability (Lapatinib + Crizotinib; first compound 0.6325 µM) | relative viability (Lapatinib + Crizotinib; first compound 2 µM) | relative viability (Lapatinib + Decitabine; first compound 0.02 µM) | relative viability (Lapatinib + Decitabine; first compound 0.06325 µM) | relative viability (Lapatinib + Decitabine; first compound 0.6325 µM) | relative viability (Lapatinib + Decitabine; first compound 2 µM) | relative viability (Lapatinib + Crizotinib; first compound 0.02 µM) | relative viability (Lapatinib + Decitabine; first compound 0.2 µM)
1 | ABC-1 | 1.1 | 1.18 | 1.14 | 1.19 | 0.949 | 0.912 | 1.16 | 1.32 | 0.964 | 0.928 | 1.32 | 1.22 | 0.967 | 1.1 | 0.931 | 1.01 | 1.02 |  | 
2 | HARA | 0.649 | 0.746 | 0.876 | 0.751 |  | 0.593 | 0.843 | 0.631 | 0.401 | 1.28 | 0.932 | 0.934 | 0.447 | 0.575 | 0.525 | 0.37 | 0.398 | 1.04 | 0.522
3 | EKVX | 0.244 | 0.183 | 0.151 | 0.206 | 0.202 | 0.738 | 0.822 | 0.581 | 0.201 | 0.68 | 0.89 | 0.647 | 0.214 |  | 0.326 | 0.304 | 0.138 | 0.868 | 0.333
4 | HCC-78 | 0.632 | 0.721 | 0.901 | 0.741 |  | 0.427 | 0.446 | 0.429 | 0.401 | 0.236 | 0.315 | 0.297 | 0.229 |  | 0.58 | 0.765 | 0.735 |  | 0.744
5 | BEN | 0.825 | 0.804 | 0.736 | 0.641 |  | 0.667 | 0.653 | 0.763 | 0.554 | 0.672 | 1.06 | 0.828 | 0.747 | 0.413 | 0.743 | 0.748 | 0.665 | 0.826 | 0.725
6 | NCI-H1734 | 0.948 | 1.04 | 1.09 | 1.02 | 0.842 | 0.694 | 0.804 | 0.888 | 0.779 | 0.481 | 0.737 | 0.669 | 0.663 |  | 0.435 | 0.552 | 0.432 |  | 0.506
7 | NCI-H596 | 1.07 | 1.1 | 1.2 | 1.13 |  | 0.832 | 0.756 | 0.835 | 0.789 | 0.849 | 1 | 0.997 | 0.659 |  | 0.979 | 1.04 | 0.957 | 0.916 | 0.793
8 | SW 1573 | 1.06 | 0.906 | 1.05 | 1.12 | 1.04 | 0.601 | 0.86 | 0.922 | 0.886 | 0.724 | 0.856 | 0.829 | 0.623 | 0.492 | 0.437 | 0.633 | 0.489 | 0.762 | 0.565
9 | RERF-LC-KJ | 0.892 | 0.836 | 0.925 | 0.797 | 0.887 | 0.794 | 0.924 | 0.85 | 0.759 | 0.802 | 0.86 | 0.876 | 0.726 | 0.679 | 0.62 | 0.645 | 0.499 | 0.803 | 0.749
10 | NCI-H1651 | 0.838 | 0.821 | 0.737 | 0.783 | 0.716 | 0.776 | 0.764 | 0.695 | 0.611 | 0.845 | 0.884 | 0.849 | 0.904 | 0.466 | 0.608 | 0.633 | 0.484 | 0.907 | 0.605

Reference: the supplement of paper PMC10307832
